Entries after “also recorded” stand apart in the source; their conditions may differ.
Legend:
[1] = tested on: mouse induced to have a cerebral aneurysm; assay: H&E staining of cerebral arteries (diameter, thickness) in animal model induced to have a cerebral aneurysm; assay type: in vivo; conditions: compared to diseased group (D); via tail vein, 5 times every three days; brain harvested at week 4
Method: (§1) A male C57BL/6J mouse was purchased from Samtako Bio Korea, and, after acclimation for about 1 week, the healthy animals were housed in a polycarbonate cage with random allocation to each test group. Environmental condition for breeding includes a temperature of 22±3° C., relative humidity of 50±10%, lighting hour of 12 hours, and illuminance of 150 to 300 lux. The animals were allowed free access to food and water. Hypertension was induced by a high salt diet, unilateral nephrectomy, and subcutaneous pump infusion of angiotensin II.
(§2) Specifically, a male C57BL/6J mouse was anesthetized with isoflurane gas and the left kidney was removed by surgery. One week after the surgery, the mouse was fixed onto a nose cone, anesthetized with isoflurane gas by inhalation, and then fixed on a stereostatic system. By using a 10 μl Hamilton syringe, 10 μl of 1.0 U elastase solution was injected to the right cistern to induce cerebral aneurysm. For elastase injection, 1.0 U elastase was injected through a hole on the right skull, under anesthetization with isoflurane gas by inhalation, by pushing the syringe to a space of cerebrospinal fluid in the right bottom, 2.5 mm behind the bregma (parietal point) and 1.0 mm to the right of the center line, and elastase was injected to the depth of 5.0 min.
(§3) After that, to have a continuous infusion of angiotensin II, an osmotic pump was subcutaneously inserted (1000 ng/kg/min) and cerebral aneurysm was induced by performing a high salt diet (8% NaCl, Enbigo) for 14 days (FIG. 2).
To the all test groups, the pharmaceutical was administered in an amount of 0.1 ml. […]
According to the visualization of cell nucleus, cytoplasm, and extracellular matrix by H&E staining of cerebral artery tissues, a change in the structure and shape of the cerebral artery was analyzed. To examine a change in the brain arterial wall, an immunohistochemical microscopic image was scanned and the diameter and thickness of the artery were measured by using Case Viewer software.

[2] = tested on: mouse induced to have a cerebral aneurysm; assay: Verhoff Van Gieson staining, elastin content of cerebral arterial wall; assay type: in vivo; conditions: healthy group 37.6±8.8%, diseased group 5.9±3.7%; via tail vein; week 4
Method: as §1
as §2, with “[…]. […]” for “min.”
Elastin content was analyzed by Verhoff Van Gieson staining technique.

[3] = tested on: mouse induced to have a cerebral aneurysm; assay: Trichrome staining, collagen content of cerebral artery wall; assay type: in vivo; conditions: via tail vein, week 4
Method: as §1
as §2, with “[…]. […]” for “min.”

MMP-9 = MMP-9 expression in cerebral arterial wall (IHC, real-time PCR, Western blot); assay type: in vivo, mouse; conditions: compared to diseased group (D); for expression level of MMP-9 protein: Western blot; for MMP-9 expression in the cerebral arterial wall: immunohistochemistry staining, levels 0 to 2
Method: as §1, §2, §3
(§4) To the all test groups, the pharmaceutical was administered in an amount of 0.1 ml.
(§5) By using the brain tissues harvested in above Example 2, a change in the expression level of MMP-9 in the cerebral arterial wall was determined by immunohistochemistry (IHC) staining. The result was classified into level 0 to level 2 and subjected to statistical analysis, while it was measured by real-time PCR and Western blot.
(§6) For the real-time PCR performed in above Examples 4 to 6, the primers described in the following Table 1 were used.

MCP-1 = MCP-1 expression in cerebral arterial wall (IHC, real-time PCR, Western blot); assay type: in vivo, mouse; conditions: compared to diseased group (D); for expression level of MCP-1 protein: Western blot; for expression level of MCP-1 in the cerebral arterial wall: immunohistochemistry staining, levels 0 to 2
Method: as §1, §2, §3, §4
as §5, with “MCP-1 and CD68” for “MMP-9”
as §6

CD68 = CD68 (macrophage marker) expression in cerebral arterial wall (IHC); assay type: in vivo, mouse; conditions: immunohistochemistry staining, levels 0 to 2; compared to diseased group (D)
Method: as §1
Specifically, a male C57BL/6J mouse was anesthetized with isoflurane gas and the left kidney was removed by surgery. One week after the surgery, the mouse was fixed onto a nose cone, anesthetized with isoflurane gas by inhalation, and then fixed on a stereostatic system. By using a 10 μl Hamilton syringe, 10 μl of 1.0 U elastase solution was injected to the right cistern to induce cerebral aneurysm. […]
as §5, with “MCP-1 and CD68” for “MMP-9”

TNF-α = TNF-α expression in cerebral arterial wall (IHC, real-time PCR, Western blot); assay type: in vivo, mouse; conditions: for expression level of TNF-α protein: Western blot; for expression level of TNF-α protein / expression level of TNF-α gene: compared to group induced to have cerebral aneurysm; for expression level of TNF-α in cerebral arterial wall: immunohistochemistry staining, levels 0 to 2, compared to diseased group (D); for expression level of TNF-α gene: real-time PCR
Method: as §1, §2, §3, §4
as §5, with “TNF-α” for “MMP-9”, “blot assays.” for “blot.”
as §6

NFκB = NFκB expression in cerebral arterial wall (real-time PCR, Western blot); assay type: in vivo, mouse; conditions: compared to group induced to have cerebral aneurysm; for expression level of NFκB protein: Western blot; for expression level of NFκB gene: real-time PCR
RAW 264.7 cells = assay: Cytotoxicity, MTT assay; assay type: cell-based; conditions: for concentration at which cell viability is lowered by cytotoxicity: MTT assay, treatment time not stated in Example 7; for melittin concentration at which cell viability was significantly decreased: RAW 264.7 cells, 0.1-4 μg/ml tested
mouse blood = assay: Hemolysis test; assay type: cell-based; conditions: at 50 μg/mL
[4] = Stability of melittin solution on storage; assay type: physicochemical; conditions: 0.36 mM (=1.0 mg/ml) melittin solution, 4° C. for 8 weeks

Compound	thickness of cerebral arteries [1]	elastin content [2]	expression level of MMP-9 protein (MMP-9)	MMP-9 expression in the cerebral arterial wall (MMP-9)	expression level of MCP-1 protein (MCP-1)	expression level of MCP-1 in the cerebral arterial wall (MCP-1)	expression level of CD68 in the cerebral arterial wall (CD68)	expression level of TNF-α protein (TNF-α)	expression level of TNF-α in cerebral arterial wall (TNF-α)	expression level of TNF-α gene (TNF-α)	expression level of NFκB protein (NFκB)	expression level of NFκB gene (NFκB)	concentration at which cell viability is lowered by cytotoxicity (RAW 264.7 cells)	other results
MeLioN: iron oxide nanoparticle loaded with melittin, formed by linking iron oxide nanoparticle, L-arginine, and melittin	increase; also recorded: significantly greater	34.9±6.2%	lower	suppressed	lower	suppressed	suppressed	lower	suppressed	lower	lower	lower	> 4000 ng/mL	diameter of cerebral arteries [1]: statistically significant decrease; also recorded: significantly smaller; collagen content ([3]; normal group 8.7±3.8%, diseased group 32.0±5.5%): 12.6±5.1%; expression level of MMP-9 gene (MMP-9; real-time PCR): lower; expression level of MCP-1 gene (MCP-1; real-time PCR): lower; melittin concentration at which cell viability was significantly decreased (RAW 264.7 cells; 12 h treatment): > 4 µg/mL; melittin concentration at which cell viability was significantly decreased (RAW 264.7 cells; 24 h treatment): > 4 µg/mL; Hemolysis (mouse blood): approximately 10%
CC[C@H](C)[C@H](NC(=O)CN)C(=O)NCC(=O)N[C@@H](C)C(=O)N[C@H](C(=O)N[C@@H](CC(C)C)C(=O)N[C@@H](CCCCN)C(=O)N[C@H](C(=O)N[C@@H](CC(C)C)C(=O)N[C@H](C(=O)N[C@H](C(=O)NCC(=O)N[C@@H](CC(C)C)C(=O)N1CCC[C@H]1C(=O)N[C@@H](C)C(=O)N[C@@H](CC(C)C)C(=O)N[C@H](C(=O)N[C@@H](CO)C(=O)N[C@@H](Cc1c[nH]c2ccccc12)C(=O)N[C@H](C(=O)N[C@@H](CCCCN)C(=O)N[C@@H](CCCNC(=N)N)C(=O)N[C@@H](CCCCN)C(=O)N[C@@H](CCCNC(=N)N)C(=O)N[C@@H](CCC(N)=O)C(=O)N[C@@H](CCC(N)=O)C(N)=O)[C@@H](C)CC)[C@@H](C)CC)[C@@H](C)O)[C@@H](C)O)C(C)C)C(C)C [MEL, melittin]	increase	19.7±7.8%	lower	suppressed	lower	suppressed	suppressed	lower	suppressed	lower	lower	lower	≥ 500 ng/mL	collagen content compared to the diseased group (D) ([3]; statistical comparison with diseased group): no statistical difference; stability of solution [4]: stably maintained
